Reference: ChEMBL document CHEMBL4330112, “Monodisperse oligoethylene glycols modified Camptothecin, 10-Hydroxycamptothecin and SN38 prodrugs” (Bioorg Med Chem Lett, 2019)
Values after ≈ are worked out from the molar mass of the structure shown.

Legend:
HepG2 = test: Cytotoxicity against human HepG2 cells after 72 hrs by MTT assay; type: functional, cell-based; conditions: HepG2, 72 h
[1] = Solubility of the compound in phosphate buffered saline by UV-spectroscopic analysis; type: physicochemical
MCF7 = test: Cytotoxicity against human MCF7 cells after 72 hrs by MTT assay; type: functional, cell-based; conditions: MCF7, 72 h
[2] = Prodrug conversion in Sprague-Dawley rat plasma assessed as SN38 formation at 4 mg measured within 2 hrs by UV-based RP-HPLC analysis; type: ADME, cell-free
[3] = Prodrug conversion in Sprague-Dawley rat plasma assessed as 10-hydroxycamptothecin formation at 4 mg measured within 2 hrs by UV-based RP-HPLC analysis; type: ADME, cell-free
[4] = phosphate buffered saline, read-out: solubility

Row | solubility [1, 4] | SMILES | IC50 (HepG2) | IC50 (MCF7) | Drug metabolism [2] | Drug metabolism [3] | solubility ([1]; buffer)
1 |  | CC[C@@]1(O)C(=O)OCc2c1cc1n(c2=O)Cc2cc3cc(OC(=O)OCCOCCOCCOCCOCCOCCOCCOCCOCCOCCOCCOCCOCCOCCOCCOC)ccc3nc2-1 | 1.71 µM | 4.47 µM |  |  | 
2 | 272 mg/mL (≈ 186 mM) | CC[C@@]1(OC(=O)OCCOCCOCCOCCOCCOCCOCCOCCOCCOCCOCCOCCOCCOCCOCCOCCOCCOCCOCCOCCOCCOCCOCCOCCOC)C(=O)OCc2c1cc1n(c2=O)Cc2cc3ccccc3nc2-1 | 6.17 µM | 8.62 µM |  |  | 
3 | 143 mg/mL (≈ 115 mM) | CC[C@@]1(OC(=O)OCCOCCOCCOCCOCCOCCOCCOCCOCCOCCOCCOCCOCCOCCOCCOCCOCCOCCOCCOC)C(=O)OCc2c1cc1n(c2=O)Cc2cc3ccccc3nc2-1 | 3.61 µM | 7.43 µM |  |  | 
4 |  | CC[C@@]1(O)C(=O)OCc2c1cc1n(c2=O)Cc2cc3cc(OC(=O)OCCOCCOCCOCCOCCOCCOCCOCCOCCOCCOCCOCCOCCOCCOCCOCCOCCOCCOCCOCCOC)ccc3nc2-1 | 3.62 µM | 6.88 µM |  |  | 
5 |  | CC[C@@]1(O)C(=O)OCc2c1cc1n(c2=O)Cc2cc3cc(OCCOCCOCCOCCOCCOCCOCCOCCOCCOCCOCCOCCO)ccc3nc2-1 | > 100 µM | > 100 µM |  |  | 
6 |  | CC[C@@]1(O)C(=O)OCc2c1cc1n(c2=O)Cc2cc3cc(OC(=O)OCCOCCOCCOCCOCCOCCOCCOCCOCCOCCOCCOCCOCCOCCOC)ccc3nc2-1 | 1.79 µM | 5.61 µM |  |  | 
7 | 82.8 mg/mL (≈ 88.6 mM) | CC[C@@]1(OC(=O)OCCOCCOCCOCCOCCOCCOCCOCCOCCOCCOCCOCCOC)C(=O)OCc2c1cc1n(c2=O)Cc2cc3ccccc3nc2-1 | 5.97 µM | 3.36 µM |  |  | 
8 | 0.38 mg/mL (≈ 0.501 mM) | CC[C@@]1(OC(=O)OCCOCCOCCOCCOCCOCCOCCOCCOC)C(=O)OCc2c1cc1n(c2=O)Cc2cc3ccccc3nc2-1 | 5.47 µM | 7.42 µM |  |  | 
9 |  | CCc1c2c(nc3ccc(OC(=O)OCCOCCOCCOCCOCCOCCOCCOCCOCCOCCOCCOCCOCCOCCOCCOCCOCCOCCOCCOCCOC)cc13)-c1cc3c(c(=O)n1C2)COC(=O)[C@]3(O)CC | 1.98 µM | 3.08 µM |  |  | 
10 | 136 mg/mL (≈ 122 mM) | CC[C@@]1(OC(=O)OCCOCCOCCOCCOCCOCCOCCOCCOCCOCCOCCOCCOCCOCCOCCOCCOC)C(=O)OCc2c1cc1n(c2=O)Cc2cc3ccccc3nc2-1 | 4.72 µM | 6.17 µM |  |  | 
11 |  | CC[C@@]1(O)C(=O)OCc2c1cc1n(c2=O)Cc2cc3cc(OC(=O)OCCOCCOCCOCCOCCOCCOCCOCCOCCOCCOCCOC)ccc3nc2-1 | 2.51 µM | 4.64 µM |  |  | 
12 |  | CC[C@@]1(O)C(=O)OCc2c1cc1n(c2=O)Cc2cc3cc(OC(=O)OCCOCCOCCOCCOCCOCCOCCOCCOCCOCCOCCOCCOC)ccc3nc2-1 | 2.21 µM | 2.85 µM | Metabolite_Detected | Metabolite_Detected | 
13 |  | CC[C@@]1(O)C(=O)OCc2c1cc1n(c2=O)Cc2cc3cc(OCCOCCOCCOCCOCCOCCOCCOCCOCCOCCO)ccc3nc2-1 | > 100 µM | > 100 µM |  |  | 
14 |  | CC[C@@]1(O)C(=O)OCc2c1cc1n(c2=O)Cc2cc3cc(OC(=O)OCCOCCOCCOCCOCCOCCOCCOCCOCCOCCOCCOCCOCCOCCOCCOCCOCCOCCOCCOC)ccc3nc2-1 | 2.2 µM | 6.09 µM |  |  | 
15 |  | CC[C@@]1(O)C(=O)OCc2c1cc1n(c2=O)Cc2cc3cc(OC(=O)OCCOCCOCCOCCOCCOCCOCCOCCOCCOCCOCCOCCOCCOCCOCCOCCOCCOCCOCCOCCOCCOCCOCCOCCOC)ccc3nc2-1 | 2.69 µM | 6.76 µM |  |  | 
16 | 183 mg/mL (≈ 142 mM) | CC[C@@]1(OC(=O)OCCOCCOCCOCCOCCOCCOCCOCCOCCOCCOCCOCCOCCOCCOCCOCCOCCOCCOCCOCCOC)C(=O)OCc2c1cc1n(c2=O)Cc2cc3ccccc3nc2-1 | 6.87 µM | 8.09 µM |  |  | 
17 |  | CCc1c2c(nc3ccc(OC(=O)OCCOCCOCCOCCOCCOCCOCCOCCOCCOCCOCCOCCOCCOCCOCCOC)cc13)-c1cc3c(c(=O)n1C2)COC(=O)[C@]3(O)CC | 2.31 µM | 4.72 µM | Metabolite_Detected | Metabolite_Detected | 
18 | 79.5 mg/mL (≈ 89.2 mM) | CC[C@@]1(OC(=O)OCCOCCOCCOCCOCCOCCOCCOCCOCCOCCOCCOC)C(=O)OCc2c1cc1n(c2=O)Cc2cc3ccccc3nc2-1 | 4.78 µM | 8.48 µM |  |  | 
19 |  | CC[C@@]1(O)C(=O)OCc2c1cc1n(c2=O)Cc2cc3cc(OCCOCCOCCOCCOCCOCCOCCOCCOCCO)ccc3nc2-1 | > 100 µM | > 100 µM |  |  | 
20 |  | CC[C@@]1(O)C(=O)OCc2c1cc1n(c2=O)Cc2cc3cc(OCCOCCOCCOCCOCCOCCOCCOCCOCCOCCOCCO)ccc3nc2-1 | > 100 µM | > 100 µM |  |  | 
21 | 114 mg/mL (≈ 106 mM) | CC[C@@]1(OC(=O)OCCOCCOCCOCCOCCOCCOCCOCCOCCOCCOCCOCCOCCOCCOCCOC)C(=O)OCc2c1cc1n(c2=O)Cc2cc3ccccc3nc2-1 | 7.07 µM | 8.53 µM |  |  | 
22 |  | CC[C@@]1(O)C(=O)OCc2c1cc1n(c2=O)Cc2cc3cc(OC(=O)OCCOCCOCCOCCOCCOCCOCCOCCOCCOCCOCCOCCOCCOCCOCCOCCOC)ccc3nc2-1 | 2.75 µM | 6.16 µM |  |  | 
23 | 94.1 mg/mL (≈ 91.9 mM) | CC[C@@]1(OC(=O)OCCOCCOCCOCCOCCOCCOCCOCCOCCOCCOCCOCCOCCOCCOC)C(=O)OCc2c1cc1n(c2=O)Cc2cc3ccccc3nc2-1 | 5.15 µM | 7.43 µM |  |  | 
24 | 0.52 mg/mL (≈ 0.614 mM) | CC[C@@]1(OC(=O)OCCOCCOCCOCCOCCOCCOCCOCCOCCOCCOC)C(=O)OCc2c1cc1n(c2=O)Cc2cc3ccccc3nc2-1 | 4.48 µM | 10.3 µM |  |  | 
25 | 0.00087 mg/mL (≈ 0.00222 mM) | CCc1c2c(nc3ccc(O)cc13)-c1cc3c(c(=O)n1C2)COC(=O)[C@]3(O)CC [7-ETHYL-10-HYDROXYCAMPTOTHECIN] | 0.48 µM | 1.25 µM |  |  | 
26 |  | CC[C@@]1(O)C(=O)OCc2c1cc1n(c2=O)Cc2cc3cc(O)ccc3nc2-1 [HYDROXYCAMPTOTHECIN] | 1.47 µM | 3.58 µM |  |  | 0.00094 mg/mL (≈ 0.00258 mM)

Row | SMILES | solubility [1, 4] | IC50 (HepG2) | IC50 (MCF7) | Drug metabolism [2] | Drug metabolism [3] | solubility ([1]; buffer)
27 | CC[C@@]1(O)C(=O)OCc2c1cc1n(c2=O)Cc2cc3cc(OCCOCCOCCOCCO)ccc3nc2-1 | 0.95 mg/mL (≈ 1.76 mM) | 41.8 µM | 74.6 µM |  |  | 
28 | CC[C@@]1(O)C(=O)OCc2c1cc1n(c2=O)Cc2cc3cc(OCCOCCOCCOCCOCCOCCOCCO)ccc3nc2-1 | 73.3 mg/mL (≈ 109 mM) | 62.4 µM | > 100 µM |  |  | 
29 | CC[C@@]1(O)C(=O)OCc2c1cc1n(c2=O)Cc2cc3cc(OCCOCCOCCOCCOCCOCCOCCOCCO)ccc3nc2-1 | 249 mg/mL (≈ 347 mM) | > 100 µM | > 100 µM |  |  | 
30 | CC[C@@]1(O)C(=O)OCc2c1cc1n(c2=O)Cc2cc3cc(OC(=O)OCCOCCOCCOCCOCCOCCOCCOCCOC)ccc3nc2-1 | 85.1 mg/mL (≈ 110 mM) | 3.06 µM | 5.39 µM |  |  | 
31 | CC[C@@]1(O)C(=O)OCc2c1cc1n(c2=O)Cc2cc3cc(OCCOCCOCCOCCOCCOCCO)ccc3nc2-1 | 11 mg/mL (≈ 17.4 mM) | 50 µM | > 100 µM |  |  | 
32 | CC[C@@]1(O)C(=O)OCc2c1cc1n(c2=O)Cc2cc3cc(OCCOCCOCCOCCOCCO)ccc3nc2-1 | 6.34 mg/mL (≈ 10.8 mM) | 70.3 µM | 95.8 µM |  |  | 
33 | CC[C@@]1(O)C(=O)OCc2c1cc1n(c2=O)Cc2cc3cc(OC(=O)OCCOCCOCCOCCOCCOCCOCCOCCOCCOCCOC)ccc3nc2-1 | 142 mg/mL (≈ 165 mM) | 2.08 µM | 5.44 µM |  |  | 
34 | CC[C@@]1(O)C(=O)OCc2c1cc1n(c2=O)Cc2cc3ccccc3nc2-1 [CAMPTOTHECIN] | 0.00069 mg/mL (≈ 0.00198 mM) | 0.66 µM | 0.68 µM |  |  | 
